These results are taken from patent US5914319A, “Antithrombotic agents” (Eli Lilly and Company, priority 1995, dated 1999).

Where a name gives a salt, the structure may show the parent alone.

Format in all cases: biochemical
For experiment [1], the system named is Human plasma. In words: Human plasma anticoagulation, activated partial thromboplastin time (APTT). The note with it: concentration required to double the APTT, linear extrapolation. A digest of the protocol:
(§1)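 Prolongation of human plasma clotting was measured for PT (thromboplastin reagent), APTT (Actin, 120 s, then 0.02M CaCl2) and TT (bovine thrombin, 10 NIH units/mL). Concentration needed for a doubled time was estimated by linear extrapolation.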

Experiment [2] deals with Human plasma. The experiment is described as follows: Human plasma anticoagulation, prothrombin time (PT). The conditions noted are these: concentration required to double the PT, linear extrapolation. Summed up:
as §1

Experiment [3] deals with Human plasma. The experiment is described as follows: Human plasma anticoagulation, thrombin time (TT). The note with it: concentration required to double the thrombin time, linear extrapolation. A digest of the protocol:
as §1

Another experiment addresses human thrombin (Homo sapiens, UniProt P00734). In words: Inhibition of the amidase activity of thrombin (Kass). The note with it: mean over a range of test compound concentrations; […].

Take `N=C(N)c1ccc(CNC(=O)[C@@H]2C[C@@H]3CCCC[C@@H]3N2C(=O)[C@H]2CCCCN2)cc1` [Example 20, D-hPro-Ohi-p-NHCH2 C6 H4 C(NH)NH2.3HCl]: the “Human Plasma Anticoagulation 2× Clotting time (ng/mL) APTT” value in the experiment with Human plasma [1] was 550 ng/mL. Besides, the “Human Plasma Anticoagulation 2× Clotting time (ng/mL) PT” value with Human plasma [2] is 600 ng/mL. Besides, the “Human Plasma Anticoagulation 2× Clotting time (ng/mL) TT” value in the experiment on Human plasma [3] is 62 ng/mL. The “Kass × 10^6 (L/mole) Human Thrombin” value at human thrombin is given as 10 × 10^6 L/mole.
The corresponding values for `Cl.Cl.N=C(N)c1ccc(CNC(=O)CN(CCc2ccccc2)C(=O)[C@H]2CCCCN2)cc1` [Example 21, D-hPro-N(PhCH2CH2)Gly-p-NHCH2 C6 H4 C(NH)NH2.2HCl] are 2,000 ng/mL, 1,000 ng/mL, 160 ng/mL and 3.6 × 10^6 L/mole.
Turning to `Cl.Cl.N=C(N)c1ccc(CNC(=O)C2CC3CCCCC3N2C(=O)C2NCCC3CCCCC32)cc1` [Example 42, D-1-Piq-cis-Ohi-p-NHCH2 C6 H4 C(NH)NH2.2HCl], the “Human Plasma Anticoagulation 2× Clotting time (ng/mL) APTT” value in the experiment on Human plasma [1] is 270 ng/mL. Moreover, the “Human Plasma Anticoagulation 2× Clotting time (ng/mL) PT” value in the experiment on Human plasma [2] is recorded as 320 ng/mL. In addition, the “Human Plasma Anticoagulation 2× Clotting time (ng/mL) TT” value in the experiment on Human plasma [3] is 20 ng/mL. For the same compound, the “Kass × 10^6 (L/mole) Human Thrombin” value at human thrombin is given as 38. × 10^6 L/mole.
The corresponding values for `Cl.Cl.Cl.N=C(N)NCCCCNC(=O)[C@@H]1CCCN1C(=O)[C@@H]1NCC[C@H]2CCCC[C@H]21` [Example 61, (4aR,8aR)-Perhydoisoquinoline-1(R)-carbonyl-Pro-Agm.3HCl] are 679 ng/mL, 756 ng/mL, 45 ng/mL and 63 × 10^6 L/mole.
Regarding `Nc1ccc(CNC(=O)[C@@H]2CCCN2C(=O)[C@@H](CC2CCCCC2)NCC(=O)O)c(F)c1` [Example 64, HO2 CCH2 -D-Cha-Pro-4-NHCH2 -3-F-C6 H3 NH2.HCl], the “Human Plasma Anticoagulation 2× Clotting time (ng/mL) APTT” value in the experiment with Human plasma [1] is recorded as 900 ng/mL. Further, the “Human Plasma Anticoagulation 2× Clotting time (ng/mL) PT” value with Human plasma [2] is listed as 650 ng/mL. In the experiment on Human plasma [3], the “Human Plasma Anticoagulation 2× Clotting time (ng/mL) TT” value is listed as 23 ng/mL. The “Kass × 10^6 (L/mole) Human Thrombin” value at human thrombin was 15 × 10^6 L/mole.
The corresponding values for `CCS(=O)(=O)N[C@H](CC1CCCCC1)C(=O)N1CCC[C@H]1C(=O)NCc1ccc(N)cc1F` [Example 82, EtSO2 -D-Cha-Pro-4-NHCH2 -3-F-C6 H3 NH2.HCl] are 3,800 ng/mL, 3,000 ng/mL, 130 ng/mL and 5.0 × 10^6 L/mole.
Take `N=C(N)c1ccc(CNC(=O)[C@@H]2CCCN2C(=O)[C@H](NCC(=O)O)C2CCCCC2)cc1` [Example 86, HOOCCH2 -D-Chg-Pro-p-NHCH2 C6 H4 C(NH)NH2.HCl]: the “Human Plasma Anticoagulation 2× Clotting time (ng/mL) APTT” value in the experiment on Human plasma [1] is recorded as 81 ng/mL. The “Human Plasma Anticoagulation 2× Clotting time (ng/mL) PT” value in the experiment with Human plasma [2] is 180 ng/mL. In the experiment on Human plasma [3], the “Human Plasma Anticoagulation 2× Clotting time (ng/mL) TT” value was 4 ng/mL.
In the case of `N=C(N)c1ccc(CNC(=O)[C@@H]2CCCN2C(=O)[C@@H](CCc2ccccc2)NCC(=O)O)cc1` [Example 87, HOOCCH2 -D-hPhe-Pro-p-NHCH2 C6 H4 C(NH)NH2.HCl], the “Human Plasma Anticoagulation 2× Clotting time (ng/mL) APTT” value with Human plasma [1] is 260 ng/mL. Further, in the experiment on Human plasma [2], the “Human Plasma Anticoagulation 2× Clotting time (ng/mL) PT” value was 310 ng/mL. Moreover, the “Human Plasma Anticoagulation 2× Clotting time (ng/mL) TT” value in the experiment on Human plasma [3] is listed as 9 ng/mL. The “Kass × 10^6 (L/mole) Human Thrombin” value on human thrombin is recorded as 30 × 10^6 L/mole.
Turning to `N=C(N)c1ccc(CNC(=O)[C@@H]2CCCN2C(=O)[C@@H](CCC2CCCCC2)NCC(=O)O)cc1` [Example 88, HOOCCH2 -D-hCha-Pro-p-NHCH2 C6 H4 C(NH)NH2.HCl], the “Human Plasma Anticoagulation 2× Clotting time (ng/mL) APTT” value with Human plasma [1] was 100 ng/mL. The “Human Plasma Anticoagulation 2× Clotting time (ng/mL) PT” value in the experiment on Human plasma [2] is 200 ng/mL. Further, the “Human Plasma Anticoagulation 2× Clotting time (ng/mL) TT” value in the experiment on Human plasma [3] is recorded as 4 ng/mL.
The matching figures for `Cl.N=C(N)c1ccc(CNC(=O)CN(CCc2ccccc2)C(=O)CNCC(=O)O)cc1` [Example 89, HOOCCH2 -Gly-N-C6 H5 CH2 CH2 Gly-p-NHCH2 C6 H4 C(NH)NH2.HCl]: 51,000 ng/mL, 37,000 ng/mL and 570 ng/mL.
The matching figures for `CCC(CC)C(=O)N[C@@H](CCC(=O)O)C(=O)N1CCC[C@H]1C(=O)NCc1ccc(C(=N)N)cc1` [Example 90, (C2 H5)2 CHCO-Glu-Pro-p-NHCH2 C6 H4 C(NH)NH2.HCl]: 14,500 ng/mL, 14,600 ng/mL and 330 ng/mL.
The matching figures for `CCC(CC)C(=O)N[C@@H](CCS(C)(=O)=O)C(=O)N1CCC[C@H]1C(=O)NCc1ccc(C(=N)N)cc1` [Example 91, (C2 H5)2 CHCO-Met(O2)-Pro-p-NHCH2 C6 H4 C(NH)NH2.HCl]: 3,000 ng/mL, 3,500 ng/mL and 63 ng/mL.
On to `CS(=O)(=O)CC(=O)N[C@H](CC1CCCCC1)C(=O)N1CCC[C@H]1C(=O)NCc1ccc(C(=N)N)cc1` [Example 92, MeSO2 CH2 CO-D-Cha-Pro-p-NHCH2 C6 H4 C(NH)NH2.HCl], for which the “Human Plasma Anticoagulation 2× Clotting time (ng/mL) APTT” value in the experiment with Human plasma [1] was 210 ng/mL. In addition, the “Human Plasma Anticoagulation 2× Clotting time (ng/mL) PT” value with Human plasma [2] was 340 ng/mL. For the same compound, the “Human Plasma Anticoagulation 2× Clotting time (ng/mL) TT” value in the experiment on Human plasma [3] is listed as 8.9 ng/mL.
With `CCS(=O)(=O)N[C@H](CC1CCCCC1)C(=O)N1CCC[C@H]1C(=O)NCc1ccc(C(=N)N)cc1F.Cl` [Example 93, EtSO2 -D-Cha-Pro-4-NHCH2 -3-F-benzamidine.HCl], the “Human Plasma Anticoagulation 2× Clotting time (ng/mL) APTT” value in the experiment on Human plasma [1] is recorded as 35 ng/mL. Further, the “Human Plasma Anticoagulation 2× Clotting time (ng/mL) PT” value in the experiment with Human plasma [2] is 140 ng/mL. In addition, the “Human Plasma Anticoagulation 2× Clotting time (ng/mL) TT” value in the experiment with Human plasma [3] was 5.9 ng/mL. Also, on human thrombin, the “Kass × 10^6 (L/mole) Human Thrombin” value is given as 970 × 10^6 L/mole.
For “D-hPro-Pro-p-NHCH2 C6 H4 C(NH)NH2.HCl [Example 17]”, the “Human Plasma Anticoagulation 2× Clotting time (ng/mL) APTT” value in the experiment on Human plasma [1] is 370 ng/mL. Moreover, in the experiment on Human plasma [2], the “Human Plasma Anticoagulation 2× Clotting time (ng/mL) PT” value is given as 400 ng/mL. In addition, in the experiment on Human plasma [3], the “Human Plasma Anticoagulation 2× Clotting time (ng/mL) TT” value is 26 ng/mL.
The matching figures for “EtSO2 -D-Phe-Pro-p-NHCH2 CH2 C6 H4 CNH(NH)NH2.HCl [Example 35]”: 50,400 ng/mL, 78,400 ng/mL and 4,500 ng/mL.
Consider “HOOCCH2 -D-Phe-Pro(4-cis-isoamyl)-p-NHCH2 C6 H4 C(NH)NH2.HCl [Example 50]”, for which the “Human Plasma Anticoagulation 2× Clotting time (ng/mL) APTT” value in the experiment with Human plasma [1] is 460 ng/mL. In addition, the “Human Plasma Anticoagulation 2× Clotting time (ng/mL) PT” value with Human plasma [2] was 420 ng/mL. In addition, the “Human Plasma Anticoagulation 2× Clotting time (ng/mL) TT” value with Human plasma [3] was 35 ng/mL.
As for “HOOCCH2 -D-Phe-Pro-p-NHCH2 C6 H4 C(NH)NH2.HCl [Example 46]”, the “Human Plasma Anticoagulation 2× Clotting time (ng/mL) APTT” value with Human plasma [1] was 67 ng/mL. Besides, in the experiment with Human plasma [2], the “Human Plasma Anticoagulation 2× Clotting time (ng/mL) PT” value was 77 ng/mL. In the experiment on Human plasma [3], the “Human Plasma Anticoagulation 2× Clotting time (ng/mL) TT” value was 2. ng/mL.
As for NMI-D-Phe-Pro-Agm.HCl [Example 4], the “Human Plasma Anticoagulation 2× Clotting time (ng/mL) TT” value in the experiment with Human plasma [3] is 230 ng/mL. Besides, at human thrombin, the “Kass × 10^6 (L/mole) Human Thrombin” value is 13. × 10^6 L/mole.
